Results as given in ChEMBL document CHEMBL1136203, “Liquid-phase synthesis of a pegylated adenosine-oligoarginine conjugate, cell-permeable inhibitor of cAMP-dependent protein kinase” (Bioorg Med Chem Lett, 2003).
Square brackets hold non-standard residues; d marks the D form. Peptide text beside a SMILES is read from it. * marks the point of attachment. ξ: configuration not given here. Adenosine(5'-uronoyl) = Nc1ncnc2c1ncn2[C@@H]1O[C@H](C(=O)*)[C@@H](O)[C@H]1O; Biotin = O=C1N[C@H]2[C@H](CS[C@H]2CCCCC(=O)*)N1; NHCH2CH2OCH2CH2OMe = COCCOCCN*; NH(CH2)6NH2 = NCCCCCCN*; ξK = NCCCCC(N)C(=O)O; Ahx = NCCCCCC(=O)O

Assay: Inhibition of cAMP dependent Protein kinase A (PKA) catalytic subunit from bovine heart
Parameters: species or system Bos taurus

SMILES | IC50
N=C(N)NCCC[C@H](NC(=O)[C@H](CCCNC(=N)N)NC(=O)[C@H](CCCNC(=N)N)NC(=O)[C@H](CCCNC(=N)N)NC(=O)[C@H](CCCNC(=N)N)NC(=O)[C@H](CCCNC(=N)N)NC(=O)CCCCCNC(=O)[C@H]1O[C@@H](n2cnc3c(N)ncnc32)[C@H](O)[C@@H]1O)C(=O)O | 700 nM
NCCCCCCNC(=O)[C@H](CCCN=C(N)N)NC(=O)[C@H](CCCN=C(N)N)NC(=O)[C@H](CCCN=C(N)N)NC(=O)[C@H](CCCN=C(N)N)NC(=O)CCCCCNC(=O)[C@H]1O[C@@H](n2cnc3c(N)ncnc32)[C@H](O)[C@@H]1O ({Adenosine(5'-uronoyl)-Ahx}-RRRR-{NH(CH2)6NH2}) | 680 nM
COCCOCCNC(=O)C(CCCCNC(=O)CCCC[C@@H]1SC[C@@H]2NC(=O)N[C@@H]21)NC(=O)[C@H](CCCN=C(N)N)NC(=O)[C@H](CCCN=C(N)N)NC(=O)[C@H](CCCN=C(N)N)NC(=O)[C@H](CCCN=C(N)N)NC(=O)CCCCCNC(=O)[C@H]1O[C@@H](n2cnc3c(N)ncnc32)[C@H](O)[C@@H]1O (stereo not given in full) ({Adenosine(5'-uronoyl)-Ahx}-RRRR[ξK](Biotin)-NHCH2CH2OCH2CH2OMe) | 1200 nM

Now those with a lower IC50, led by results:

IC50 | SMILES
460 nM | COCCOCCNC(=O)C(CCCCN)NC(=O)[C@H](CCCN=C(N)N)NC(=O)[C@H](CCCN=C(N)N)NC(=O)[C@H](CCCN=C(N)N)NC(=O)[C@H](CCCN=C(N)N)NC(=O)CCCCCNC(=O)[C@H]1O[C@@H](n2cnc3c(N)ncnc32)[C@H](O)[C@@H]1O (stereo not given in full) ({Adenosine(5'-uronoyl)-Ahx}-RRRR[ξK]-NHCH2CH2OCH2CH2OMe)
135 nM | O=S(=O)(NCCNC/C=C/c1ccc(Br)cc1)c1cccc2cnccc12
